Test system: Caenorhabditis elegans
Assay: C. elegans L1 nematicidal dose response in 96-well plates, 5 day visual score (Example 2; same procedure for Example 7, Table 3)
Type: in vivo
Design: key to 5 Day Visual Score V1 / 5 Day Visual Score V2 / 5 Day Visual Score V3 / 5 Day Visual Score V4 / 5 Day Visual Score V6 / 5 Day Visual Score V5 / Initial HTS Run Visual Score / Follow-up HTS Run Visual Score: Dead: only stiff L1s (no movement); Dead (L4): worms are dead, but at a later larval stage; majority of worms are L1 (based on size) worms move when plate is tapped; majority of worms are L2 (based on size); majority of worms are L3 (based on size); majority of worms are L4 (based on size); AD: majority of worms are adult; #AD: 5 adult worms or less; B!: sterile (0-25 progeny); B: low broodsize (25-100 progeny); ˜B: moderate broodsize (100-250 progeny); <: reduced broodsize (250-500 progeny); OK: no effect (˜1000+ progeny)
Details: for 5 Day Visual Score V1 / 5 Day Visual Score V2 / 5 Day Visual Score V4 / 5 Day Visual Score V5 / 5 Day Visual Score V6 / 5 Day Visual Score V3: dose response; for 5 Day Visual Score V1: dilution V1, day 5; for 5 Day Visual Score V2: dilution V2, day 5; for 5 Day Visual Score V4: dilution V4, day 5; for 5 Day Visual Score V5: dilution V5, day 5; for 5 Day Visual Score V6: dilution V6, day 5; for 5 Day Visual Score V3: dilution V3, day 5
Summary of the method: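 L1 larvae, 20 per well in NGM with 1% E. coli HB101 and antibiotic/antimycotic, exposed to six 3-fold dilutions from 70 μM down to 0.3 μM (1.4% DMSO at top). Held at 20° C; viability scored visually under 100× dissecting microscope on day 5.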

SMILES | Follow-up HTS Run % Run | Follow-up HTS Run Visual Score | Follow-up HTS Run mOD | Initial HTS Run % Run | Initial HTS Run Visual Score | Initial HTS Run mOD | 5 Day Visual Score V1 | 5 Day Visual Score V2 | 5 Day Visual Score V4 | 5 Day Visual Score V5 | 5 Day Visual Score V6 | 5 Day Visual Score V3
CCCCCCCCCCNc1nsc(N(C)CCc2ccc(OC)c(OC)c2)n1 [compound 285] | 131% | Dead | 211 mOD | 149% | Dead | 164 mOD | Dead | Dead | ˜B (moderate broodsize (100-250 progeny)) | OK (no effect (˜1000+ progeny)) | OK (no effect (˜1000+ progeny)) | 
Cc1cccc(C)c1N1CCN(c2nc(NCCC(c3ccccc3)c3ccccc3)ns2)CC1 [compound 287] | 88% |  | 142 mOD | 128% |  | 141 mOD | Dead | B (low broodsize (25-100 progeny)) | OK (no effect (˜1000+ progeny)) | OK (no effect (˜1000+ progeny)) | OK (no effect (˜1000+ progeny)) | 
CCCCCCCCCCCCCCCCCCN(C)c1nc(NCCC(c2ccccc2)c2ccccc2)ns1 [compound 288] | 82% | L4/AD/B! | 132 mOD | 105% | L3/L4/1AD/B | 116 mOD | L1 | B (low broodsize (25-100 progeny)) | OK (no effect (˜1000+ progeny)) | OK (no effect (˜1000+ progeny)) | OK (no effect (˜1000+ progeny)) | OK (no effect (˜1000+ progeny))
C=CCN(CC=C)c1nc(NCCC(c2ccccc2)c2ccccc2)ns1 [compound 289] | 86% |  | 139 mOD | 104% | L4/AD/B | 114 mOD |  | ˜B (moderate broodsize (100-250 progeny)) | OK (no effect (˜1000+ progeny)) | OK (no effect (˜1000+ progeny)) | OK (no effect (˜1000+ progeny)) | OK (no effect (˜1000+ progeny))
CCOC(=O)CCN(Cc1ccccc1)c1nc(NCCC(c2ccccc2)c2ccccc2)ns1 [compound 290] | 99% | L4/AD/B | 159 mOD | 101% | L4/AD/B | 111 mOD | Dead |  | OK (no effect (˜1000+ progeny)) | OK (no effect (˜1000+ progeny)) | OK (no effect (˜1000+ progeny)) | OK (no effect (˜1000+ progeny))
CCCCN(Cc1ccccc1)c1nc(NCc2ccc(F)cc2F)ns1 [compound 291] | 137% | B! (sterile (0-25 progeny)) | 220 mOD | 136% |  | 150 mOD | L4#AD/B! | OK (no effect (˜1000+ progeny)) | OK (no effect (˜1000+ progeny)) | OK (no effect (˜1000+ progeny)) | OK (no effect (˜1000+ progeny)) | OK (no effect (˜1000+ progeny))
CCN(Cc1ccccc1)c1nc(NCc2ccc(F)cc2F)ns1 [compound 292] | 116% | L4/AD/B! | 187 mOD | 110% |  | 121 mOD |  | ˜B (moderate broodsize (100-250 progeny)) | OK (no effect (˜1000+ progeny)) | OK (no effect (˜1000+ progeny)) | OK (no effect (˜1000+ progeny)) | OK (no effect (˜1000+ progeny))
C=CCN(CC=C)c1nc(NCc2ccc(F)cc2F)ns1 [compound 293] | 125% | L4/AD/B! | 201 mOD | 108% | L4 | 119 mOD |  | < (reduced broodsize (250-500 progeny)) | OK (no effect (˜1000+ progeny)) | OK (no effect (˜1000+ progeny)) | OK (no effect (˜1000+ progeny)) | OK (no effect (˜1000+ progeny))
CN(CCc1ccccc1)c1nc(NCc2ccc(F)cc2F)ns1 [compound 294] | 116% | B! (sterile (0-25 progeny)) | 187 mOD | 108% | L4/AD/B!-Few Eggs | 119 mOD |  |  | OK (no effect (˜1000+ progeny)) | OK (no effect (˜1000+ progeny)) | OK (no effect (˜1000+ progeny)) | OK (no effect (˜1000+ progeny))
CN(Cc1ccccc1)c1nc(NCc2ccc(F)cc2F)ns1 [compound 295] | 128% | B! (sterile (0-25 progeny)) | 206 mOD | 121% | L4/AD/B!-Few Eggs | 133 mOD |  | B (low broodsize (25-100 progeny)) | OK (no effect (˜1000+ progeny)) | OK (no effect (˜1000+ progeny)) | OK (no effect (˜1000+ progeny)) | B (low broodsize (25-100 progeny))
Fc1ccc(N2CCN(c3nc(NCc4c(F)cccc4F)ns3)CC2)cc1 [compound 296] | 109% | L4 | 175 mOD | 96% | L4/AD/B!-Few Eggs | 106 mOD | Dead |  | OK (no effect (˜1000+ progeny)) | OK (no effect (˜1000+ progeny)) | < (reduced broodsize (250-500 progeny)) | B (low broodsize (25-100 progeny))
CCN(c1nc(NCc2c(F)cccc2F)ns1)C1CCCCC1 [compound 297] | 109% | L4/AD/B | 175 mOD | 104% | L4/AD/B!-Few Eggs | 114 mOD |  | B (low broodsize (25-100 progeny)) | OK (no effect (˜1000+ progeny)) | OK (no effect (˜1000+ progeny)) | OK (no effect (˜1000+ progeny)) | OK (no effect (˜1000+ progeny))

Reference: US20020002171A1, “Materials and methods for killing nematodes and nematode eggs” (priority 2000, published 2002)
